Read-outs that look alike come from different tables or passages of the source. Numbered stars: 1 amine (or outer) side, 2 acyl side, 3 side chain; on linkers, the order of the positions; unused ones are H or OH. Bridge positions count the residues as written; N and C are the ends. Square brackets hold non-standard residues; d marks the D form. Peptide text beside a SMILES is read from it. X3 = COCCOCCOCC(=O)N[C@H]1C[C@@H](C(=O)[*:2])N([*:1])C1; Phe(4-F) = N[C@@H](Cc1ccc(F)cc1)C(=O)O; 2Nal = N[C@@H](Cc1ccc2ccccc2c1)C(=O)O; Cit = NC(=O)NCCC[C@H](N)C(=O)O; Dab = NCC[C@H](N)C(=O)O
Experiments:
CXCR4 = CXCR4 (Homo sapiens, UniProt P61073); assay: Ca2+-assay method 2 (Flexstation, SDF-1 induced calcium mobilization); type: cell-based; set-up: expressed in transfected cells; host or cells: mouse pre-B cell line 300-19; conditions: method 2 (Ex. 54-160), mouse pre-B cell line 300-19 with human CXCR4, 10 nM SDF-1
Chain of CXCR4 (P61073 whole entry): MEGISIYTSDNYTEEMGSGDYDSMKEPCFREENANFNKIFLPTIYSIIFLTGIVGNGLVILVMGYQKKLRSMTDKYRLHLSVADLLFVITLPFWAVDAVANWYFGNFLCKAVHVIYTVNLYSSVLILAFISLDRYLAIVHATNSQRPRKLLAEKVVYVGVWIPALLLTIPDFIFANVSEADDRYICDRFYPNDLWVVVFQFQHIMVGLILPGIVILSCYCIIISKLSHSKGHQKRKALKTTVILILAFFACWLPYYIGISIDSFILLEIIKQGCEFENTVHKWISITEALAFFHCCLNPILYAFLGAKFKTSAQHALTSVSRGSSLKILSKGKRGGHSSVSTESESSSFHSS

[1] = tested on: human red blood cells (hRBC); assay: Hemolysis; type: cell-based
Procedure, shortened: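 Washed fresh human erythrocytes (20% v/v, about 0.9×10^9 cells/ml final) incubated with peptide at 100 μM for 1 h at 37° C. Supernatant diluted 20-fold and OD540 read. Percent hemolysis relative to 0.1% Triton X-100 in H2O (100%), with PBS alone as 0%.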

in vitro = conditions: human
[2] = read-out: IC50 (nM) Ca^2+ assay
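For GI50 in this document: MTT reduction read as absorbance at 595 nm, blank-corrected and expressed as percent growth relative to the time-zero cell reading, triplicate wells per concentration.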

Row | SMILES | IC50 (CXCR4; [2]) [nM] | Hemolysis at 100 μM [1] [%] | GI50 at 48 h (in vitro) [nM] | IC50 (CXCR4; IC50 (nM) Ca^2+ assay) [nM] | Hemolysis at 100 μM ([1]; percent hemolysis, 100 μM peptide, 20% v/v hRBC, 1 hour at 37° C.) [%]
1 | N=C(N)NCCC[C@@H]1NC(=O)[C@@H]2CSSC[C@H](NC(=O)[C@H](Cc3ccc4ccccc4c3)NC(=O)[C@H](CCCNC(=N)N)NC(=O)[C@H](CCCNC(=N)N)NC(=O)[C@H]3CCCN3C(=O)CNC1=O)C(=O)N[C@@H](Cc1ccc(O)cc1)C(=O)N[C@@H](Cc1ccc(O)cc1)C(=O)N[C@@H](CCCCN)C(=O)N1CCC[C@@H]1C(=O)N1CCC[C@H]1C(=O)N[C@@H](Cc1ccc(O)cc1)C(=O)N[C@@H](CCCNC(=N)N)C(=O)N[C@@H](CCCNC(N)=O)C(=O)N2 [Ex. 59] (cyclo(YR[Cit]CRG[dP]RR[2Nal]CYYK[dP]P); disulfide 4-11) | 7.8 | 0.1 | 33000 | – | –
2 | N=C(N)NCCC[C@@H]1NC(=O)[C@@H]2CSSC[C@H](NC(=O)[C@H](Cc3ccc4ccccc4c3)NC(=O)[C@H](CCCNC(=N)N)NC(=O)[C@H](CCCNC(=N)N)NC(=O)[C@H]3CCCN3C(=O)CNC1=O)C(=O)N[C@@H](Cc1ccc(O)cc1)C(=O)N[C@@H](CCC(N)=O)C(=O)N[C@@H](CCCCN)C(=O)N1CCC[C@@H]1C(=O)N1CCC[C@H]1C(=O)N[C@@H](Cc1ccc(O)cc1)C(=O)N[C@@H](CCCNC(=N)N)C(=O)N[C@@H](Cc1c[nH]cn1)C(=O)N2 [Ex. 70] (cyclo(YRHCRG[dP]RR[2Nal]CYQK[dP]P); disulfide 4-11) | 19.5 | 0.2 | 40000 | – | –
3 | N=C(N)NCCC[C@@H]1NC(=O)[C@@H]2CSSC[C@H](NC(=O)[C@H](Cc3c[nH]c4ccccc34)NC(=O)[C@H](CCCNC(=N)N)NC(=O)[C@H](CCCNC(N)=O)NC(=O)[C@H]3CCCN3C(=O)CNC1=O)C(=O)N[C@@H](Cc1ccc(O)cc1)C(=O)N[C@@H](CCCNC(N)=O)C(=O)N[C@@H](CCCCN)C(=O)N1CCC[C@@H]1C(=O)N1CCC[C@H]1C(=O)N[C@@H](Cc1ccc(O)cc1)C(=O)N[C@@H](CCCNC(=N)N)C(=O)N[C@@H](CCCNC(N)=O)C(=O)N2 [Ex. 136] (cyclo(YR[Cit]CRG[dP][Cit]RWCY[Cit]K[dP]P); disulfide 4-11) | 4.1 | 0 | > 100000 | – | –
4 | C[C@@H]1NC(=O)[C@H](Cc2ccc(O)cc2)NC(=O)[C@@H]2CSSC[C@H](NC(=O)[C@H](CCCNC(N)=O)NC(=O)[C@H](CCCNC(=N)N)NC(=O)[C@H](Cc3ccc(O)cc3)NC(=O)[C@@H]3CCCN3C(=O)[C@H]3CCCN3C(=O)[C@H](CCCCN)NC1=O)C(=O)N[C@@H](CCCNC(=N)N)C(=O)NCC(=O)N1CCC[C@@H]1C(=O)N[C@@H](CCCNC(=N)N)C(=O)N[C@@H](CCCNC(=N)N)C(=O)N[C@@H](Cc1ccc3ccccc3c1)C(=O)N2 [Ex. 80] (cyclo(YR[Cit]CRG[dP]RR[2Nal]CYAK[dP]P); disulfide 4-11) | 2.9 | 0.1 | 44000 | – | –
5 | N=C(N)NCCC[C@@H]1NC(=O)[C@@H]2CSSC[C@H](NC(=O)[C@H](Cc3c[nH]c4ccccc34)NC(=O)[C@H](CCCNC(=N)N)NC(=O)[C@H](CCCNC(=N)N)NC(=O)[C@H]3CCCN3C(=O)CNC1=O)C(=O)N[C@@H](Cc1ccc(O)cc1)C(=O)N[C@@H](CCC(N)=O)C(=O)N[C@@H](CCCCN)C(=O)N1CCC[C@@H]1C(=O)N1CCC[C@H]1C(=O)N[C@@H](Cc1ccc(O)cc1)C(=O)N[C@@H](CCCNC(=N)N)C(=O)N[C@@H](CCCNC(N)=O)C(=O)N2 [Ex. 108] (cyclo(YR[Cit]CRG[dP]RRWCYQK[dP]P); disulfide 4-11) | 4.6 | 0 | 70000 | – | –
6 | N=C(N)NCCC[C@@H]1NC(=O)[C@@H]2CSSC[C@H](NC(=O)[C@H](Cc3ccc4ccccc4c3)NC(=O)[C@H](CCCNC(=N)N)NC(=O)[C@H](CCCNC(=N)N)NC(=O)[C@H]3CCCN3C(=O)CNC1=O)C(=O)N[C@@H](Cc1ccc(O)cc1)C(=O)N[C@@H](CCC(N)=O)C(=O)N[C@@H](CCCCN)C(=O)N1CCC[C@@H]1C(=O)N1CCC[C@H]1C(=O)N[C@@H](Cc1ccc(O)cc1)C(=O)N[C@@H](CCCNC(=N)N)C(=O)N[C@@H](Cc1ccc(O)cc1)C(=O)N2 [Ex. 72] (cyclo(YRYCRG[dP]RR[2Nal]CYQK[dP]P); disulfide 4-11) | 3.9 | 0.5 | 36000 | – | –
7 | N=C(N)NCCC[C@@H]1NC(=O)[C@@H]2CSSC[C@H](NC(=O)[C@H](Cc3c[nH]c4ccccc34)NC(=O)[C@H](CCCNC(=N)N)NC(=O)[C@H](CCCNC(=N)N)NC(=O)[C@H]3CCCN3C(=O)CNC1=O)C(=O)N[C@@H](Cc1ccc(O)cc1)C(=O)N[C@@H](CCCNC(N)=O)C(=O)N[C@@H](CCCCN)C(=O)N1CCC[C@@H]1C(=O)N1CCC[C@H]1C(=O)N[C@@H](Cc1ccc(O)cc1)C(=O)N[C@@H](CCCCN)C(=O)N[C@@H](CCCNC(N)=O)C(=O)N2 [Ex. 106] (cyclo(YK[Cit]CRG[dP]RRWCY[Cit]K[dP]P); disulfide 4-11) | 3.1 | 0 | 83000 | – | –
8 | N=C(N)NCCC[C@@H]1NC(=O)[C@@H]2CCC(=O)NCC[C@H](NC(=O)[C@H](Cc3c[nH]c4ccccc34)NC(=O)[C@H](CCCNC(=N)N)NC(=O)[C@H](CCCNC(=N)N)NC(=O)[C@H]3CCCN3C(=O)CNC1=O)C(=O)N[C@@H](Cc1ccc(O)cc1)C(=O)N[C@@H](CCCNC(N)=O)C(=O)N[C@@H](CCCCN)C(=O)N1CCC[C@@H]1C(=O)N1CCC[C@H]1C(=O)N[C@@H](Cc1ccc(O)cc1)C(=O)N[C@@H](CCCNC(=N)N)C(=O)N[C@@H](CCCNC(N)=O)C(=O)N2 [Ex. 153] (cyclo(YR[Cit]ERG[dP]RRW[Dab]Y[Cit]K[dP]P); lactam 4-11) | 21.9 | 1.7 | 43000 | – | –
9 | N=C(N)NCCC[C@@H]1NC(=O)[C@@H]2CSSC[C@H](NC(=O)[C@H](Cc3ccc4ccccc4c3)NC(=O)[C@H](CCCNC(=N)N)NC(=O)[C@H](CCCNC(=N)N)NC(=O)[C@H]3CCCN3C(=O)CNC1=O)C(=O)N[C@@H](Cc1ccc(O)cc1)C(=O)N[C@@H](CCC(N)=O)C(=O)N[C@@H](CCCCN)C(=O)N1CCC[C@@H]1C(=O)N1CCC[C@H]1C(=O)N[C@@H](Cc1ccc(O)cc1)C(=O)N[C@@H](CCCNC(=N)N)C(=O)N[C@@H](CCCNC(=N)N)C(=O)N2 [Ex. 69] (cyclo(YRRCRG[dP]RR[2Nal]CYQK[dP]P); disulfide 4-11) | 1.8 | 0.1 | 49000 | – | –
10 | N=C(N)NCCC[C@@H]1NC(=O)[C@@H]2CSSC[C@H](NC(=O)[C@H](Cc3ccc4ccccc4c3)NC(=O)[C@H](CCCNC(=N)N)NC(=O)[C@H](CCCNC(=N)N)NC(=O)[C@H]3CCCN3C(=O)CNC1=O)C(=O)N[C@@H](Cc1ccc(O)cc1)C(=O)N[C@@H](CCC(N)=O)C(=O)N[C@@H](CCCCN)C(=O)N1CCC[C@@H]1C(=O)N1CCC[C@H]1C(=O)N[C@@H](Cc1ccc(O)cc1)C(=O)N[C@@H](CCCNC(=N)N)C(=O)N[C@@H](Cc1ccc(F)cc1)C(=O)N2 [Ex. 99] (cyclo(YR[Phe(4-F)]CRG[dP]RR[2Nal]CYQK[dP]P); disulfide 4-11) | 4.2 | 1.1 | 40000 | – | –
11 | N=C(N)NCCC[C@@H]1NC(=O)[C@@H]2CSSC[C@H](NC(=O)[C@H](Cc3ccc4ccccc4c3)NC(=O)[C@H](CCCNC(=N)N)NC(=O)[C@H](CCCNC(=N)N)NC(=O)[C@H]3CCCN3C(=O)CNC1=O)C(=O)N[C@@H](Cc1ccc(O)cc1)C(=O)N[C@@H](CCC(N)=O)C(=O)N[C@@H](CCCCN)C(=O)N1CCC[C@@H]1C(=O)N1CCC[C@H]1C(=O)N[C@@H](Cc1ccc(O)cc1)C(=O)N[C@@H](CCCNC(=N)N)C(=O)N[C@@H](CO)C(=O)N2 [Ex. 96] (cyclo(YRSCRG[dP]RR[2Nal]CYQK[dP]P); disulfide 4-11) | 3 | 1 | 69000 | – | –
12 | CSCC[C@@H]1NC(=O)[C@@H]2CCCN2C(=O)[C@H]2CCCN2C(=O)[C@H](CCCCN)NC(=O)[C@H](CCC(N)=O)NC(=O)[C@H](Cc2ccc(O)cc2)NC(=O)[C@@H]2CSSC[C@H](NC(=O)[C@H](CCCNC(N)=O)NC(=O)[C@H](CCCNC(=N)N)NC1=O)C(=O)N[C@@H](CCCNC(=N)N)C(=O)NCC(=O)N1CCC[C@@H]1C(=O)N[C@@H](CCCNC(=N)N)C(=O)N[C@@H](CCCNC(=N)N)C(=O)N[C@@H](Cc1ccc3ccccc3c1)C(=O)N2 [Ex. 91] (cyclo(MR[Cit]CRG[dP]RR[2Nal]CYQK[dP]P); disulfide 4-11) | 2.1 | 0.2 | 48000 | – | –
13 | COCCOCCOCC(=O)N[C@H]1C[C@H]2C(=O)N[C@@H](Cc3ccc(O)cc3)C(=O)N[C@@H](CCCNC(=N)N)C(=O)N[C@@H](CCCNC(N)=O)C(=O)N[C@H]3CSSC[C@H](NC(=O)[C@H](Cc4c[nH]c5ccccc45)NC(=O)[C@H](CCCNC(=N)N)NC(=O)[C@H](CCCNC(=N)N)NC(=O)[C@H]4CCCN4C(=O)CNC(=O)[C@H](CCCNC(=N)N)NC3=O)C(=O)N[C@@H](Cc3ccc(O)cc3)C(=O)N[C@@H](CCCNC(N)=O)C(=O)N[C@@H](CCCCN)C(=O)N3CCC[C@@H]3C(=O)N2C1 [Ex. 116] (cyclo(YR[Cit]CRG[dP]RRWCY[Cit]K[dP][X3]); disulfide 4-11) | – | – | 20000 | 14.5 | 0
14 | CC(C)[C@@H]1NC(=O)[C@H](CCCNC(=N)N)NC(=O)[C@H](Cc2ccc(O)cc2)NC(=O)[C@@H]2CCCN2C(=O)[C@H]2CCCN2C(=O)[C@H](CCCCN)NC(=O)[C@H](CCC(N)=O)NC(=O)[C@H](Cc2ccc(O)cc2)NC(=O)[C@@H]2CSSC[C@H](NC1=O)C(=O)N[C@@H](CCCNC(=N)N)C(=O)NCC(=O)N1CCC[C@@H]1C(=O)N[C@@H](CCCNC(=N)N)C(=O)N[C@@H](CCCNC(=N)N)C(=O)N[C@@H](Cc1ccc3ccccc3c1)C(=O)N2 [Ex. 98] (cyclo(YRVCRG[dP]RR[2Nal]CYQK[dP]P); disulfide 4-11) | 3.9 | 1 | 41000 | – | –
